These are literature values, as cited in patent US10456383B2, “Targeted approach in the management of Epidermolysis bullosa” (The Board of Trustees of the Leland Stanford Junior …, priority 2017, dated 2019).

Each structure is given as a SMILES string.

For series [1] the following is noted: topical formulations, all cases; standard serum levels required for immunosuppression 5-15 ng/ml.
The conditions of series [2]: ointment plasticized base containing no water (PCCA).

Turning to `CO[C@H]1C[C@@H]2CC[C@@H](C)[C@@](O)(O2)C(=O)C(=O)N2CCCC[C@H]2C(=O)O[C@H]([C@H](C)C[C@@H]2CC[C@@H](O)[C@H](OC)C2)CC(=O)[C@H](C)/C=C(\C)[C@@H](O)[C@@H](OC)C(=O)[C@H](C)C[C@H](C)/C=C/C=C/C=C/1C` [Sirolimus], the “systemic level of rapamycin” value in series [1] is recorded as “less than 2 ng/ml”. For the same molecule, the sirolimus stability entry in series [2] is “at least 6 months”.
